# In patent US11447466B2, “Substituted indole compounds useful as inhibitors of TLR7/8/9” (BRISTOL-MYERS SQUIBB COMPANY, priority 2017, dated 2022):
# What was measured:
# Format in all cases: cell-based
# [1] = target: T1, human TLR7 (Homo sapiens, UniProt Q9NYK1); assay: TLR7 inhibition reporter assay (HEK-Blue SEAP reporter, gardiquimod stimulation); conditions: HEK-Blue cells overexpressing human TLR7, SEAP reporter, gardiquimod 7.5 μM, 22 hour incubation
# T1 construct: host or cells: HEK-Blue cells
# T1 sequence (Q9NYK1 27-1049): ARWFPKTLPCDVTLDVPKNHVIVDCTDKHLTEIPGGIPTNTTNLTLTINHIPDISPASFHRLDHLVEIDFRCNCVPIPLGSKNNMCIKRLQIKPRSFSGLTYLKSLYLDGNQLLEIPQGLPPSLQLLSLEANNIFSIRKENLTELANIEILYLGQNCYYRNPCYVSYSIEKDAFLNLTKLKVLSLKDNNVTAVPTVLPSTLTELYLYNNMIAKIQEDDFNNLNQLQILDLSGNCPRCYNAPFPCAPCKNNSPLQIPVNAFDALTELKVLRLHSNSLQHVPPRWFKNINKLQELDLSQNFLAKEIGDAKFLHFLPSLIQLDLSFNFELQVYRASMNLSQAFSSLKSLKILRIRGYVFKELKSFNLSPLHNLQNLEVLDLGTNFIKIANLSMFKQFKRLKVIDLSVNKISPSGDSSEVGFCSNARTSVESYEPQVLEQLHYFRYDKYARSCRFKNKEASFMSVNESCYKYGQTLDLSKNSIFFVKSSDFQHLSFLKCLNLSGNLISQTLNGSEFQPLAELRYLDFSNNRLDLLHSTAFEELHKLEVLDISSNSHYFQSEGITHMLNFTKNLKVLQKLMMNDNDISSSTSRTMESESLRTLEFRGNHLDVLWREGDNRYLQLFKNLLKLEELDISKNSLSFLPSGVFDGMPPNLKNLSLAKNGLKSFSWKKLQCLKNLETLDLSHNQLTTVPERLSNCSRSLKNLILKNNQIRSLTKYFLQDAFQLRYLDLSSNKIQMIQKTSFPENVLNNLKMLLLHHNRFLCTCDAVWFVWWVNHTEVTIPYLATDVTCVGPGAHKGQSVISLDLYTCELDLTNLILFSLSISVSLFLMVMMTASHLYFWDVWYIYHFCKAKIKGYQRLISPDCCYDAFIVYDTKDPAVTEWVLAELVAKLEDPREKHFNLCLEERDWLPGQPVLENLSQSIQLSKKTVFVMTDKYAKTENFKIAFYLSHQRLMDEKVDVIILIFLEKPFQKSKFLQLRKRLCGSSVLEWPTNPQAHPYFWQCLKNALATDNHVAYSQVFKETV
# Outline: (§1)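 Human TLR7/8/9 HEK-Blue reporter lines; dose range 0.05 nM–50 μM; 30 min RT preincubation; stimulus gardiquimod 7.5 μM / R848 15.9 μM / ODN2006 5 nM respectively; 22 h, 37 °C; SEAP detected colorimetrically.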
# [2] = target: T2, human TLR9 (Homo sapiens, UniProt Q9NR96); assay: TLR9 inhibition reporter assay (HEK-Blue SEAP reporter, ODN2006 stimulation); conditions: HEK-Blue cells overexpressing human TLR9, SEAP reporter, ODN2006 5 nM, 22 hour incubation
# T2 construct: host or cells: HEK-Blue cells
# T2 sequence (Q9NR96 26-1032): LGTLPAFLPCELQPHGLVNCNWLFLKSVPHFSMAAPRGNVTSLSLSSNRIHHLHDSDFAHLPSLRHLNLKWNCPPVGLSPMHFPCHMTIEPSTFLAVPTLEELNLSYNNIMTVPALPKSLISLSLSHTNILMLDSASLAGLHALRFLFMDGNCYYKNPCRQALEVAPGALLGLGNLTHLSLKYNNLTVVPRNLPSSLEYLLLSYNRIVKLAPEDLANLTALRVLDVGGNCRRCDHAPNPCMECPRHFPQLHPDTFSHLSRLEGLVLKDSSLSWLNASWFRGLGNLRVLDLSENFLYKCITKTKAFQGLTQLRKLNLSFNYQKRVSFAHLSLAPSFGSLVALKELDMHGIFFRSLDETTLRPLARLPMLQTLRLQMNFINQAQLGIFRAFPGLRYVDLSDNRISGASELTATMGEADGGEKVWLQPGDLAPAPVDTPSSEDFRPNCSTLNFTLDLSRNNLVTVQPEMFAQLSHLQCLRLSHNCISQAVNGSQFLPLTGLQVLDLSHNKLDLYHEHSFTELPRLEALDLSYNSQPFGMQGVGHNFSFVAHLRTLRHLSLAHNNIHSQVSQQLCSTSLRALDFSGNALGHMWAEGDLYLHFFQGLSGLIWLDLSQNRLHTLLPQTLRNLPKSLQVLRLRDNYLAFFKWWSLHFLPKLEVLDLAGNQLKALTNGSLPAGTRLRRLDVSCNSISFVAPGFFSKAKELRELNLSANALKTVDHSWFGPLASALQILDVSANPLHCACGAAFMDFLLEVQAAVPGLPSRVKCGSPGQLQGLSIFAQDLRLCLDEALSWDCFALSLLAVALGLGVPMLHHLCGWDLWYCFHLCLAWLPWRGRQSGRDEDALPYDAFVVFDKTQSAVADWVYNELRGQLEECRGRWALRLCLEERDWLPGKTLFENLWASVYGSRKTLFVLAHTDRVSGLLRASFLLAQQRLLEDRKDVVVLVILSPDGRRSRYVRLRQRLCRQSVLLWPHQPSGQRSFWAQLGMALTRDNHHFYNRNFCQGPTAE
# Outline: as §1
# [3] = target: T3, human TLR8 (Homo sapiens, UniProt Q9NR97); assay: TLR8 inhibition reporter assay (HEK-Blue SEAP reporter, R848 stimulation); conditions: HEK-Blue cells overexpressing human TLR8, SEAP reporter, R848 15.9 μM, 22 hour incubation
# T3 construct: host or cells: HEK-Blue cells
# T3 sequence (Q9NR97 27-1041): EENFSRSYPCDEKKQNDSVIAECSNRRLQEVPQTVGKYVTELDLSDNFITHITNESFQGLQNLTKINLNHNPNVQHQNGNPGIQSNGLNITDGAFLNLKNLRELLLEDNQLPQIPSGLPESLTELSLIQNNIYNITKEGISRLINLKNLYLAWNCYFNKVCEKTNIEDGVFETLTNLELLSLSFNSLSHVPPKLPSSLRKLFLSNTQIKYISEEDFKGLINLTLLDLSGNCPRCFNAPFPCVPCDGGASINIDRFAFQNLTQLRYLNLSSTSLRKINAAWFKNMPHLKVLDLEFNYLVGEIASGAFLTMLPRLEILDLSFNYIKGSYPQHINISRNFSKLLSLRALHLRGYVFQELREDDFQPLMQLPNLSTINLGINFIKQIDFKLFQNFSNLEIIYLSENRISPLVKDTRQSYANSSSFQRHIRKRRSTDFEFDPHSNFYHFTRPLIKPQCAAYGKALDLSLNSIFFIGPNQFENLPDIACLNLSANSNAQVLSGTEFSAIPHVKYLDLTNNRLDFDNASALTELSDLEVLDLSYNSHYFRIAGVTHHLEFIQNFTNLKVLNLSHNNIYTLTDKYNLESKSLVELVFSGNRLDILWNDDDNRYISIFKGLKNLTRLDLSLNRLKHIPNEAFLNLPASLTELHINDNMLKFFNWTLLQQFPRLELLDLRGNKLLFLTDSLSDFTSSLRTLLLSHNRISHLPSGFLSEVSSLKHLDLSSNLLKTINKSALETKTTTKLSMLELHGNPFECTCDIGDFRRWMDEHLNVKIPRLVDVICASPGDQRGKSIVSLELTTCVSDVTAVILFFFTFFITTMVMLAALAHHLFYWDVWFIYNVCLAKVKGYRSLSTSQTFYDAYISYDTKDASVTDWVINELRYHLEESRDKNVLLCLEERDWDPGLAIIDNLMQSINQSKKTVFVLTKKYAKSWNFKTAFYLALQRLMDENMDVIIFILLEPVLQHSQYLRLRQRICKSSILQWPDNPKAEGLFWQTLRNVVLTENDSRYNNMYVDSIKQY
# Outline: as §1
IC50 [1],IC50 [2],IC50 [3],Structure (SMILES)
6.8 nM,411 nM,7.7 nM,"CC(C)c1c(-c2cc(-c3cccnc3)c(=O)n(C)c2)[nH]c2ccc(C3CCNCC3)cc12 [Example 50, 5-(3-isopropyl-5-(piperidin-4-yl)-1H-indol-2-yl)-1-methyl-[3,3′-bipyridin]-2(1H)-one]"
3.8 nM,2080 nM,19.4 nM,"Cc1cc(-c2[nH]c3ccc(C4CCNCC4)cc3c2C(C)C)cn(-c2ccccc2)c1=O [Example 44, 5-(3-isopropyl-5-(piperidin-4-yl)-1H-indol-2-yl)-3-methyl-1-phenylpyridin-2(1H)-one]"
3.2 nM,2680 nM,5.1 nM,"CCCN1CCC(c2ccc3[nH]c(-c4cn(C)c(=O)c(Cl)c4C)c(C(C)C)c3c2)CC1 [Example 242, 3-chloro-5-(3-isopropyl-5-(1-propylpiperidin-4-yl)-1H-indol-2-yl)-1,4-dimethylpyridin-2(1H)-one]"
976 nM,3100 nM,75.1 nM,"Cc1c(-c2[nH]c3ccc(C4CCNCC4)cc3c2C(C)C)cn(C)c(=O)c1-c1cccnc1 [Example 65, 5-(3-isopropyl-5-(piperidin-4-yl)-1H-indol-2-yl)-1,4-dimethyl-[3,3′-bipyridin]-2(1H)-one]"
4.7 nM,8040 nM,3.1 nM,"Cc1cc(-c2[nH]c3ccc(C4CCN([C@H]5CCOC[C@@H]5O)CC4)cc3c2C(C)C)cn(C)c1=O [Example 313, 5-(5-(1-((3R,4S)-3-hydroxytetrahydro-2H-pyran-4-yl)piperidin-4-yl)-3-isopropyl-1H-indol-2-yl)-1,3-dimethylpyridin-2(1H)-one]"
21.8 nM,≥ 50000 nM,17.3 nM,"Cc1cc(-c2[nH]c3ccc(C4CCN(Cc5ncn(C)n5)CC4)cc3c2C(C)C)cn(C)c1=O [Example 72, 5-(3-isopropyl-5-(1-((1-methyl-1H-1,2,4-triazol-3-yl)methyl)piperidin-4-yl)-1H-indol-2-yl)-1,3-dimethylpyridin-2(1H)-one]"
9.1 nM,≥ 50000 nM,13.4 nM,"Cc1cc(-c2[nH]c3ccc(C4CCN(Cc5ncnn5C)CC4)cc3c2C(C)C)cn(C)c1=O [Example 198, 5-(3-isopropyl-5-(1-((1-methyl-1H-1,2,4-triazol-5-yl)methyl)piperidin-4-yl)-1H-indol-2-yl)-1,3-dimethylpyridin-2(1H)-one]"
6.6 nM,3530 nM,2.6 nM,"Cc1c(-c2[nH]c3ccc(C4CCN(CC(=O)N(C)C)CC4)c(F)c3c2C(C)C)cn(C)c(=O)c1Cl [Example 158, 2-(4-(2-(5-chloro-1,4-dimethyl-6-oxo-1,6-dihydropyridin-3-yl)-4-fluoro-3-isopropyl-1H-indol-5-yl)piperidin-1-yl)-N,N-dimethylacetamide]"
4.4 nM,3990 nM,5.5 nM,"CN[C@@H](C)C(=O)N1CCC(c2ccc3[nH]c(-c4cc(C)c(=O)n(C)c4)c(C(C)C)c3c2)CC1 [Example 297, 5-(3-isopropyl-5-(1-(methyl-L-alanyl)piperidin-4-yl)-1H-indol-2-yl)-1,3-dimethylpyridin-2(1H)-one]"
14.6 nM,3410 nM,99.1 nM,"Cc1cc(-c2[nH]c3ccc(C4CCN(C(=O)CN(C)C)CC4)cc3c2C(C)C)cn(CC(C)C)c1=O [Example 285, 5-(5-(1-(dimethylglycyl)piperidin-4-yl)-3-isopropyl-1H-indol-2-yl)-1-isobutyl-3-methylpyridin-2(1H)-one]"
2 nM,5650 nM,22.1 nM,"Cc1c(-c2[nH]c3ccc(C4CCN(S(=O)(=O)CCN5CCCC5)CC4)cc3c2C(C)C)cn(C)c(=O)c1Cl [Example 308, 3-chloro-5-(3-isopropyl-5-(1-((2-(pyrrolidin-1-yl)ethyl)sulfonyl)piperidin-4-yl)-1H-indol-2-yl)-1,4-dimethylpyridin-2(1H)-one]"
11.9 nM,1800 nM,6.2 nM,"CC(C)c1c(-c2cc(-c3cccnc3)c(=O)n(C)c2)[nH]c2ccc(C3CCN(CC(=O)N(C)C)CC3)cc12 [Example 169, 2-(4-(3-isopropyl-2-(1-methyl-2-oxo-1,2-dihydro-[3,3′-bipyridin]-5-yl)-1H-indol-5-yl)piperidin-1-yl)-N,N-dimethylacetamide]"
5.3 nM,13500 nM,8.3 nM,"Cc1cc(-c2[nH]c3ccc(C4CCN(C(=O)CN(C)C)CC4)cc3c2C(C)C)cn(C)c1=O [Example 271, 5-(5-(1-(2-(dimethylamino)acetyl)piperidin-4-yl)-3-isopropyl-1H-indol-2-yl)-1,3-dimethylpyridin-2(1H)-one]"
12.6 nM,8920 nM,11.7 nM,"Cc1cc(-c2[nH]c3ccc(C4CCN(C5CCOC5)CC4)cc3c2C(C)C)nn(C)c1=O (stereo not drawn) [Example 193, 6-(3-isopropyl-5-(1-(tetrahydrofuran-3-yl)piperidin-4-yl)-1H-indol-2-yl)-2,4-dimethylpyridazin-3(2H)-one]"
